Experimental data: US4434172A, “2-Substituted-phenyl-5-alkylthiazolidine-4-one” (priority 1980, dated 1984)

What was measured:
[1] = Acute toxicity test, oral; parameters: species or system Female ICR-mice; settings: mouse, in vivo, mortality observed for a week, Litchfield-Wilcoxon
Protocol: Female ICR-mice of body weight of 20 to 24 g, 5 weeks after birth were used.
Eight animal per group were kept in a transparent polycage at room temperature of 23°±1° C., and RH of 60 to 70%.
After minutely pulverizing each one of the present compounds, the pulverized compound was suspended in an aqueous 5% sodium carboxymethylcellulose solution containing 20% of Tween-80. The aqueous suspension was forcibly orally administered by a metal stomach tube, the dose rate having been adjusted by changing the concentration of the present compound in the aqueous suspension.

[2] = tested on: peptic ulcer due to pyloric ligation; test: Effect on peptic ulcer due to pyloric ligation; type: in vivo, male rats; settings: 100 mg/kg, intraperitoneal; for Ulcer coefficient: 15 hours after pyloric ligation, control 41.1; for Rate of suppression of ulcer: versus control
Protocol: (1) Effect on peptic ulcer due to pyloric ligation
Six groups (10 animals per group) of male rats weighting 180 to 200 g were subjected to ligation of their pylori under ether-anesthesia after fasting for 48 hours according to the method of Shay et al. (refer to Gastroenterology, 5, page 43 (1945)).
Just after subjecting to ligation, each of the present compound suspended in an aqueous physiological saline solution was intraperitoneally administered to each rat, the control being poured to with an aqueous physiological saline solution. Then, after 15 hours of fasting without taking water, the rats were sacrificed with ether and their stomachs were removed to examine under a microscope for anatomy. The length and width of the thus-formed ulcer in the stomach were determined and expressed by the product (mm^2), and the total sum of the products was represented as the ulcer coefficient.

[3] = tested on: peptic ulcer due to acetic acid; test: Effect on peptic ulcer due to acetic acid (duodenal); type: in vivo, male rats; settings: for coefficient (ulcer coefficient) / Rate of suppression of ulcer: 100 mg/kg, oral; for coefficient (ulcer coefficient): 3 times a day for 10 days from third day of operation, control 8.0; for Rate of suppression of ulcer: 3 times a day for 10 days, versus control
Excerpt: The inventors of the present invention, taking into account of these situations, added to the above-mentioned method of evaluation the effect of accelerating the cure of the peptic ulcer by orally administering the present compound and a commercialized anti-peptic ulcer medicine, respectivey to rats to which duodenal peptic ulcer due to acetic acid (refer to Okabe, 1971) considered to be most closely resembling to human peptic ulcer has been artificially formed.
(2) Effect on peptic ulcer due to acetic acid
Following the method of Okabe et al (refer to Amer. J. Dig. Dis., 16, […], 6 groups (15 animals per group) of male rats weighing 240 to 260 g were subjected to laparotomy under ether anesthesia in which a metal circular frame was placed on the serosa at a distance of 5 to 7 mm from the duodenal pylorus, 0.06 ml of glacial acetic acid was poured into the frame. After 30 seconds, the liquid containing the acetic acid was removed and then the frame was removed. The test compound suspended in an aqueous physiological saline solution was orally administered to the rat 3 times a day from the third day of the operation for consecutive 10 days. After the administration was over, the rats were sacrificed with ether, and their duodenum was removed to observe under a microscope for anatomy. The length and width of the thus-formed ulcer were measured and their product (expressed with mm^2) was recorded as the ulcer coefficient.

peptic ulcer = settings: cited from earlier work

COc1cc(C2NC(=O)C(C)S2)cc(OC)c1OC (stereo not shown) [Compound 1, 2-(3,4,5-trimethoxyphenyl)-5-methylthiazolidine-4-one]
LD50 at 168 h [1]: 6400 mg/kg | Ulcer coefficient [2]: 7.2 mm^2 | Rate of suppression of ulcer [2]: 82.5% | coefficient (ulcer coefficient) [3]: 2.8 mm^2 | Rate of suppression of ulcer [3]: 77.5%

COc1ccc(C2NC(=O)C(C)S2)cc1OC (stereo not shown) [Compound 2, 2-(3,4-dimethoxyphenyl)-5-methylthiazolidine-4-one]
LD50 at 168 h [1]: > 8000 mg/kg | Ulcer coefficient [2]: 6.5 mm^2 | Rate of suppression of ulcer [2]: 84.2% | coefficient (ulcer coefficient) [3]: 2.4 mm^2 | Rate of suppression of ulcer [3]: 70.0%

COc1ccccc1C1NC(=O)C(C)S1 (stereo not shown) [Compound 3, 2-(2-methoxyphenyl)-5-methylthiazolidine-4-one]
LD50 at 168 h [1]: > 8000 mg/kg | Ulcer coefficient [2]: 3.6 mm^2 | Rate of suppression of ulcer [2]: 91.2% | coefficient (ulcer coefficient) [3]: 1.3 mm^2 | Rate of suppression of ulcer [3]: 83.8%

COc1ccc(C2NC(=O)C(C)S2)cc1 (stereo not shown) [Compound 4, 2-(4-methoxyphenyl)-5-methylthiazolidine-4-one]
LD50 at 168 h [1]: > 8000 mg/kg | Ulcer coefficient [2]: 4.1 mm^2 | Rate of suppression of ulcer [2]: 90.0% | coefficient (ulcer coefficient) [3]: 1.5 mm^2 | Rate of suppression of ulcer [3]: 81.3%

CC1(C)[C@@H](OC(=O)CCC(=O)O)CC[C@]2(C)[C@H]3C(=O)C=C4[C@@H]5C[C@@](C)(C(=O)O)CC[C@]5(C)CC[C@@]4(C)[C@]3(C)CC[C@@H]12 [carbenoxolone]
effect on ulcer-curing (peptic ulcer; commercialized medicine): excellent accelerating effect on the ulcer-curing | side effects (peptic ulcer; in vivo): aldosterone-like side effects to cause hypertension and weakening of muscular function

CC(C)=CCCC(C)=CCCC(C)=CCCC(=O)OCC=C(C)CCC=C(C)C [gefarnate, 3,7dimethyl-2,6-octadienyl 5,9,13trimethyl-4,8,12-tetradecatrienoate, reference compound]
Ulcer coefficient [2]: 36.1 mm^2 | Rate of suppression of ulcer [2]: about 12% | Rate of suppression of ulcer ([2]; listed as Positive control): 12.2% | coefficient (ulcer coefficient) [3]: 6.4 mm^2 | Rate of suppression of ulcer [3]: 20.0% | curative effect / effectiveness (in words) ([3]; acetic acid ulcer): only a slight effectiveness
